By IC50 is commonly meant the concentration that inhibits the measured activity by half. Low readings indicate greater potency, high ones weaker potency.

Like-named read-outs stand apart in the source and are kept apart here. Where a SMILES comes first, the peptide text is derived from it. Bridges are numbered along the chain shown (N, C = ends). Primed or numbered codes have the meaning given here. Where no end group is shown, it is not given here. [ ]: non-standard residue; d: D form. The star is where a group is joined. FITC′ = fluorescein isothiocyanate; Myristoyl = CCCCCCCCCCCCCC(=O)*; S5 = C=CCCC[C@](C)(N)C(=O)O

The test system of assay [1] is H-Ras-transformed Rat-1 cells (EJ cells). The assay is classed as cell-based. An excerpt: Cell lines—Human breast cancer cell lines SKBR3 [Peles E et al. EMBO J. (1993) 12(3):961-71] and MCF7 [Faigenbloom L et al., Mol Syst Biol. (2015) 11(12):845] and human glioblastoma U87 [Goldberg L et al. Cancer Res. (2006) 66(24):11709-17] cell line, as well as Rat-1 fibroblast cells and H-Ras-transformed Rat-1 cells (EJ cells) [Marom M et al. J Biol Chem. (1995) 270(38):22263-70] and human Panc-1 and MIA PaCa-2 pancreatic cell lines (Rak R et al. Oncoscience. 2014 1(1):39-48; Weisz B et al. Oncogene (1999) 18, 2579±2588) were all grown in Dulbecco's modified Eagle's medium (DMEM; Biological Industries, Beithaemek, Israel). Human colorectal cancer cell lines DLD-1 (ATTC Cat No. CCL-221), HCT-116 (ATTC Cat No. CCL-247) and LNCaP prostate cancer cells were grown in Roswell Park Memorial Institute 1640 (RPMI 1640) medium and McCoy's 5A media, respectively (Sigma-Aldrich). All media were supplemented with antibiotics and 10% heat-inactivated fetal bovine serum (FBS; Gibco). Human breast cell line MCF10A [Bott A et al. Oncotarget. […]
Methylene blue viability assay—Cells were plated in 96-wells plates at cell densities of 1.5×10^3 (EJ, DLD-1), 3×10^3 (Rat-1, HCT-116, U87), 5×10^3 (SKBR3, MCF7) and 6×10^3 (MCF10A) cells/well. […] IC-50 values were calculated using a non-linear regression model (logarithmic inhibitor vs. normalized response-variable slope) with the GraphPad Prism 6 software.

Assay [2] relates to non-cancerous (MCF10A) breast cell line. Put plainly: Methylene blue viability assay, MCF10A. The assay is classed as cell-based, human. As to conditions: 72 hours, 10 μM peptide; FIGS. 6A-B. An excerpt:
(§1) Cell lines—Human breast cancer cell lines SKBR3 [Peles E et al. EMBO J. (1993) 12(3):961-71] and MCF7 [Faigenbloom L et al., Mol Syst Biol. (2015) 11(12):845] and human glioblastoma U87 [Goldberg L et al. Cancer Res. (2006) 66(24):11709-17] cell line, as well as Rat-1 fibroblast cells and H-Ras-transformed Rat-1 cells (EJ cells) [Marom M et al. J Biol Chem. (1995) 270(38):22263-70] and human Panc-1 and MIA PaCa-2 pancreatic cell lines (Rak R et al. Oncoscience. 2014 1(1):39-48; Weisz B et al. Oncogene (1999) 18, 2579±2588) were all grown in Dulbecco's modified Eagle's medium (DMEM; Biological Industries, Beithaemek, Israel). Human colorectal cancer cell lines DLD-1 (ATTC Cat No. CCL-221), HCT-116 (ATTC Cat No. CCL-247) and LNCaP prostate cancer cells were grown in Roswell Park Memorial Institute 1640 (RPMI 1640) medium and McCoy's 5A media, respectively (Sigma-Aldrich). All media were supplemented with antibiotics and 10% heat-inactivated fetal bovine serum (FBS; Gibco). Human breast cell line MCF10A [Bott A et al. Oncotarget. (2017) 8(27):43897-43914] was grown in Dulbeco's Modified Eagle's Medium/Nutrient Mixture F-12 HAM medium (DMEM F-12 HAM; Sigma-Aldrich), supplemented with antibiotics, 5% inactivated horse serum (HS; Invitrogen), 2 mM L-glutamine (Biological Industries, Beithaemek, Israel), 0.1 μg/ml cholera toxin (Sigma-Aldrich), 0.5 μg/ml hydrocortisone (Sigma-Aldrich), 10 μg/ml insulin (Biological Industries, Beithaemek, Israel) and 2 ng/ml EGF (R&D Systems). Cells were incubated at 37° C. in 5% CO2 in air, and the medium was changed every 3-4 days. Cells were passaged in trypsin/disodium ethylenediaminetetraacetic acid (Biological Industries, Beithaemek, Israel) when confluency reached 70%. One day prior to treatment the cells were plated at ~50% confluency in a medium supplemented with 10% FBS or 5% HS, accordingly.
(§2) Methylene blue viability assay—Cells were plated in 96-wells plates at cell densities of 1.5×10^3 (EJ, DLD-1), 3×10^3 (Rat-1, HCT-116, U87), 5×10^3 (SKBR3, MCF7) and 6×10^3 (MCF10A) cells/well. On the following day, cells were treated as indicated, and grown for 72 hours. Cell number determination was performed as described previously. IC-50 values were calculated using a non-linear regression model (logarithmic inhibitor vs. normalized response-variable slope) with the GraphPad Prism 6 software.

The test system of another assay is U87 glioma cells. The assay is classed as cell-based, human. As to conditions: 72 h.
Excerpt: as §1, §2

Assay [3] concerns Panc-1 pancreatic cancer cells. Type of assay: cell-based, human. As to conditions: 72 h.
Excerpt: as §1, §2

The subject of assay [4] is HCT-116 colon cancer cells. Type of assay: cell-based, human. The settings on record: 72 h.
Excerpt: as §1, §2

The next assay deals with DLD-1 colon cancer cells. The assay is classed as cell-based, human. As to conditions: 72 h.
Excerpt: as §1, §2

The next assay has as its system MCF7 breast cancer cells. The assay is classed as cell-based, human. The settings on record: for MCF7 cell viability: 10 μM peptide, FIGS. 6A-B.
Excerpt: as §1
(§3) Methylene blue viability assay—Cells were plated in 96-wells plates at cell densities of 1.5×10^3 (EJ, DLD-1), 3×10^3 (Rat-1, HCT-116, U87), 5×10^3 (SKBR3, MCF7) and 6×10^3 (MCF10A) cells/well. […] Cell number determination was performed as described previously. IC-50 values were calculated using a non-linear regression model (logarithmic inhibitor vs. normalized response-variable slope) with the GraphPad Prism 6 software.

The test system of assay [5] is SKBR3 breast cancer cells. Type of assay: cell-based, human.
Excerpt: as §1, §3

A further assay concerns DLD-1 cells. Put plainly: Colony formation assay, DLD-1. As to conditions: 20 μM, 72 hours, FIG. 12. Type of assay: cell-based, human. As to the method:
Colony formation assay—Cells were plated onto 12-well plate (6×10^4 cells/well) and treated with either PBS or myr-NLS at the IC50 concentration for 3 days. Cells were collected and replated in 10-cm plates (at 3 dilutions of 1:10, 1:20 and 1:40). After 7-14 days when visible and yet separated colonies were formed, the cells were fixed with 0.1% acetic acid in PBS, and stained with 0.4% crystal violet in 0.1% acetic acid. Total colonies area was calculated using the ImageJ program.
In addition, a colony formation assay was conducted to further examine the anti-tumor effect of the myr-NLS (SEQ ID NO: 5), myr-NLS2 (SEQ ID NO: 15) and myr-NLS4 (SEQ ID NO: 17) peptides. To this end, DLD-1 cells were treated or untreated for 72 hours with 20 μM of the myr-peptides. Cells were then seeded at the same dilutions in new plates until colonies were formed.

Setting [6] is: 30 μM peptide for 48 hours, FIG. 5A.

As for `CCCCCCCCCCCCCC(=O)N[C@@H](CCCNC(=N)N)C(=O)N[C@@H](CCCNC(=N)N)C(=O)N[C@@H](CCCNC(=N)N)C(=O)N[C@@H](Cc1c[nH]cn1)C(=O)N[C@H](C(=O)N[C@@]1(C)CCCC=CCCC[C@@](C)(C(=O)N[C@@H](CC(C)C)C(=O)N[C@@H](CCCNC(=N)N)C(=O)N[C@@H](CCCNC(=N)N)C(=O)N[C@@H](CC(C)C)C(=O)N[C@@H](CC(C)C)C(=O)O)NC(=O)[C@H](CCCNC(=N)N)NC(=O)[C@H](CCCCN)NC(=O)[C@H](CCCNC(=N)N)NC1=O)[C@@H](C)CC` [mN6-10, Myr-RRRHI(S5)RKR(S5)LRRLL] (Myristoyl-RRRHI[S5]RKR[S5]LRRLL-OH; staple 6-10; C-terminus assumed), the IC50 in assay [1] stood at 11.6 µM; in the assay on U87 glioma cells, 15.9 µM; in assay [3], 7.6 µM; in [4], 13.3 µM; with DLD-1 colon cancer cells it was 9.4 µM; with MCF7 breast cancer cells, 9.7 µM. This compound yielded an IC50 in [5] (72 h) of 18.9 µM. Further, in assay [2], the “viability of non-cancerous MCF10 breast cells” value was “had no effect”. For the same compound, in the assay on MCF7 breast cancer cells (setting [6]), the “viability of MCF7 breast cancer cells” value is on record as “even more efficient than the myr-NLS peptide”. The MCF7 cell viability entry in the assay with MCF7 breast cancer cells (72 hours) was “decreased MCF7 cell viability”. In addition, the “viability of SKBR3 breast cancer cells” value in assay [5] (setting [6]) is reported as “even more efficient than the myr-NLS peptide”.

Take “Myr-KRRQQKIRKYTMRRLL-OH (Myristoyl-KRRQQKIRKYTMRRLL-OH; SMILES CCCCCCCCCCCCCC(=O)N[C@@H](CCCCN)C(=O)N[C@@H](CCCNC(=N)N)C(=O)N[C@@H](CCCNC(=N)N)C(=O)N[C@@H](CCC(N)=O)C(=O)N[C@@H](CCC(N)=O)C(=O)N[C@@H](CCCCN)C(=O)N[C@H](C(=O)N[C@@H](CCCNC(=N)N)C(=O)N[C@@H](CCCCN)C(=O)N[C@@H](Cc1ccc(O)cc1)C(=O)N[C@H](C(=O)N[C@@H](CCSC)C(=O)N[C@@H](CCCNC(=N)N)C(=O)N[C@@H](CCCNC(=N)N)C(=O)N[C@@H](CC(C)C)C(=O)N[C@@H](CC(C)C)C(=O)O)[C@@H](C)O)[C@@H](C)CC) [myr-NLS2]”: the “colony formation (total colonies area)” value with DLD-1 cells is “fewer and smaller colonies”.

As to “Myr-RRRHIVR(S5)RTL(S5)RLL (Myristoyl-RRRHIVR[S5]RTL[S5]RLL; staple 8-12; not fully specified; printed as Myr-RRRHIVR(S5)RTL(S5)RLL) [mN8-12]”, in [2], the “viability of non-cancerous MCF10 breast cells” value is “decreased viability”. Also, the MCF7 cell viability result in the assay with MCF7 breast cancer cells (72 hours) was “decreased viability”.

With “Myr-RRRHIVRK(FITC)RTLRRLL (Myristoyl-RRRHIVRK(FITC′)RTLRRLL) [myr-NLS-FITC]”, in the assay with MCF7 breast cancer cells (MCF7, 72 hours, FIG. 4E), the “effect of FITC-conjugation on cell viability activity compared to myr-NLS” value is given as “did not affect myr-NLS activity”.

Take “Myr-RRRHIVRKRT(S5)RRL(S5) (Myristoyl-RRRHIVRKRT[S5]RRL[S5]; staple 11-15) [mN11-15]”: the “viability of non-cancerous MCF10 breast cells” value in assay [2] is reported as “had no effect”. Further, in the assay on MCF7 breast cancer cells (72 hours), the MCF7 cell viability entry is listed as “decreased MCF7 cell viability”.

Regarding RRRRRRRRHIVRKRTLRRLL (R-NLS peptide), the “viability of SKBR3 breast cancer cells” value in assay [5] (80 μM peptide for 72 hours, FIG. 4A) was “significantly reduced viability”.

Source of the values: patent publication US20260200982A1, “HER RECEPTOR DERIVED PEPTIDES AND METHODS OF USE THEREOF” (Ramot at Tel-Aviv University Ltd., priority 2022, published 2026).
